From patent US5565494A, “Antitumor compositions and methods of treatment” (Eli Lilly and Company, priority 1995, dated 1996)
Values joined by “and” are separate entries in the source; they are usually repeats but may differ in a detail not shown here. Equal values may be shown once.

What was measured:
Format in all cases: in vivo
[1] = tested on: 6C3HED lymphosarcoma (Gardner lymphosarcoma, GLS); experiment: Antitumor activity in C3H mice bearing 6C3HED lymphosarcoma allograft, oral administration; conditions: for Percent Inhibition of tumor growth: tumor measured five days after treatment ended
From the text: A third tumor model employed C3H mice bearing the widely used allograft 6C3HED lymphosarcoma, also known as the Gardner lymphosarcoma (GLS). The 6C3HED lymphosarcoma was obtained from the Division of Cancer Treatment, National Cancer Institute, Tumor Bank, maintained at E.G. and G. Mason Research (Worcester, Mass.).
(§1) First passage tumors were stored in liquid nitrogen, using standard techniques. The transplanted tumor was reestablished from the Tumor Bank every six months or as needed. The tumor was maintained by serial passage twice weekly in the host mice.
(§2) In the procedures utilized here, the tumor was removed from passage animals and minced into 1- to 3-mm cubic fragments using sterile techniques. Tumor pieces were checked for sterility using both Antibiotic Medium 1 and Brain Heart Infusion (Difco, Detroit, Mich.). The xenograft tumor pieces were implanted into the recipient CD1 Nu/Nu mice subcutaneously in an axillary site by trochar. The allograft 6C3HED tumor pieces were implanted into the recipient C3H mice in an analogous fashion.
Drug therapy on the appropriate schedule was initiated seven days after tumor implantation. […] The total dosage volume for each administration was 0.5 ml. All animals were weighed at the beginning and end of administration of the subject compounds. Food and water were provided ad libitum.
(§3) Each control group and each dosage level of the treated groups consisted of 9 or 10 mice selected at random from the pool of implanted animals. The formulations were administered orally by gavage with the use of an 18-gauge needle. Compounds were dosed daily for 10 days for the studies using the human tumor xenografts and 8 days for the studies using the allograft.
The tumor was measured five days after treatment ended with two dimensional measurements (width and length) of the tumor taken using digital electronic calipers interfaced to a microcomputer. […] Tumor weights were calculated from these measurements using the following formula: [formula]

[2] = tested on: VRC5 human colon adenocarcinoma; experiment: Antitumor activity in mice bearing VRC5 human colon adenocarcinoma xenograft, oral administration; conditions: for Toxic/Total (mice which died relative to total in group): VRC5, oral gavage daily for 10 days; for Percent Inhibition of tumor growth: po
From the text: (§4) Two of the tumor models used for showing the anti-neoplastic activity of the sulfonylureas of this invention were the human colon xenografts, HXGC3 and VRC5. J. A. Houghton and D. M. Taylor, British Journal of Cancer, 37:213-223 (1978). These tumors were obtained from St. Jude's Children's Research Hospital and have been widely used as human tumor models.
as §1, §2
(§5) Drug therapy on the appropriate schedule was initiated seven days after tumor implantation. The compound being tested was mixed with 2.5% Emulphor EL620 from GAF Corporation (1:40 dilution in 0.9% saline). The total dosage volume for each administration was 0.5 ml. All animals were weighed at the beginning and end of administration of the subject compounds. Food and water were provided ad libitum.
as §3
(§6) The tumor was measured five days after treatment ended with two dimensional measurements (width and length) of the tumor taken using digital electronic calipers interfaced to a microcomputer. J. F. Worzalla, et Investigational New Drugs, 8:241-251 (1990). Tumor weights were calculated from these measurements using the following formula: [formula] At least one control group of an equal number of mice was treated with the same volume of 2.5% Emulphor only. The percent inhibition is determined by subtracting the ratio of the mean tumor size of the test group relative to the control group from one and multiplying the result by 100.
(§7) The results of several experiments in mice bearing the HXGC3 and VRC5 human colon adenocarcinomas and the 6C3HED lymphosarcoma when the Formula I compounds were administered orally are provided in Table I. In the table, Column 1 refers to the example number of the compound tested; Column 2 describes the particular human tumor xenograft or mouse allograft being studied; Column 3 gives the dosage level of the compound of Formula I in milligrams per kilogram of body weight; Column 4 describes the percent inhibition of tumor growth; and Column 5 tallies the number of mice which died during the course of the experiment relative to the total number of animals in the group.

[3] = tested on: HXGC3 human colon adenocarcinoma; experiment: Antitumor activity in mice bearing HXGC3 human colon adenocarcinoma xenograft, oral administration; conditions: for Toxic/Total (mice which died relative to total in group): HXGC3, oral gavage daily for 10 days; for Percent Inhibition of tumor growth: po
From the text: as §4, §1, §2, §5, §3, §6, §7

[4] = 6C3HED, 150 mg/kg, oral gavage daily for 8 days
[5] = 6C3HED, 300 mg/kg, oral gavage daily for 8 days
[6] = 6C3HED, 600 mg/kg, oral gavage daily for 8 days
[7] = Mus musculus, 6C3HED, po, read-out: Percent Inhibition of tumor growth

SMILES: CN(C)c1ccc(S(=O)(=O)NC(=O)Nc2ccc(Cl)cc2)cc1 [Example 1, N-[[(4-chlorophenyl)amino]carbonyl]-4-(dimethylamino)benzenesulfonamide]
- Toxic/Total (mice which died relative to total in group) ([1]; 6C3HED, 37.5 mg/kg, oral gavage daily for 8 days): 0/10
- Toxic/Total (mice which died relative to total in group) ([1]; 6C3HED, 75 mg/kg, oral gavage daily for 8 days): 0/10
- Toxic/Total (mice which died relative to total in group) [1, 4]: 0/10
- Toxic/Total (mice which died relative to total in group) [1, 5]: 0/10
- Toxic/Total (mice which died relative to total in group) [1, 6]: 10/10
- Percent Inhibition of tumor growth [1, 6]: Toxic
- inhibition in vivo at 37.5 mg/kg [1, 7]: 80%
- inhibition in vivo at 75 mg/kg [1, 7]: 99%
- inhibition in vivo at 150 mg/kg [1, 7]: 100%
- inhibition in vivo at 300 mg/kg [1, 7]: 100%

SMILES: CN(C)c1ccc(S(=O)(=O)NC(=O)Nc2ccc(Cl)c(Cl)c2)cc1 [Example 2, N-[[(3,4-dichlorophenyl)amino]carbonyl]-4-(dimethylamino)benzenesulfonamide]
- Toxic/Total (mice which died relative to total in group) ([2]; 150 mg/kg): 0/10
- Toxic/Total (mice which died relative to total in group) ([2]; 300 mg/kg): 0/10
- Toxic/Total (mice which died relative to total in group) ([2]; 600 mg/kg): 1/10
- Toxic/Total (mice which died relative to total in group) ([2]; 1200 mg/kg): 0/10
- Percent Inhibition of tumor growth ([2]; 150 mg/kg): 100%
- Percent Inhibition of tumor growth ([2]; 300 mg/kg): 100%
- Percent Inhibition of tumor growth ([2]; 600 mg/kg): 100%
- Percent Inhibition of tumor growth ([2]; 1200 mg/kg): 100%
- Toxic/Total (mice which died relative to total in group) ([3]; 150 mg/kg): 0/10
- Toxic/Total (mice which died relative to total in group) ([3]; 300 mg/kg): 0/10
- Toxic/Total (mice which died relative to total in group) ([3]; 600 mg/kg): 1/10
- Toxic/Total (mice which died relative to total in group) ([3]; 1200 mg/kg): 1/10
- Percent Inhibition of tumor growth ([3]; 150 mg/kg): 100%
- Percent Inhibition of tumor growth ([3]; 300 mg/kg): 100%
- Percent Inhibition of tumor growth ([3]; 600 mg/kg): 100%
- Percent Inhibition of tumor growth ([3]; 1200 mg/kg): 100%
- Toxic/Total (mice which died relative to total in group) ([1]; 6C3HED, 20 mg/kg, oral gavage daily for 8 days): 0/10
- Toxic/Total (mice which died relative to total in group) ([1]; 6C3HED, 40 mg/kg, oral gavage daily for 8 days): 0/10
- Toxic/Total (mice which died relative to total in group) ([1]; 6C3HED, 80 mg/kg, oral gavage daily for 8 days): 0/10
- Toxic/Total (mice which died relative to total in group) ([1]; 6C3HED, 160 mg/kg, oral gavage daily for 8 days): 0/10
- inhibition in vivo at 20 mg/kg [1, 7]: 35%
- inhibition in vivo at 40 mg/kg [1, 7]: 51%
- inhibition in vivo at 80 mg/kg [1, 7]: 89%
- inhibition in vivo at 160 mg/kg [1, 7]: 97%

SMILES: CN(C)c1cccc(S(=O)(=O)NC(=O)Nc2ccc(Cl)cc2)c1 [Example 4, N-[[(4-chlorophenyl)amino]carbonyl]-3-(dimethylamino)benzenesulfonamide]
- Toxic/Total (mice which died relative to total in group) [1, 4]: 0/10
- Toxic/Total (mice which died relative to total in group) [1, 5]: 0/10
- inhibition in vivo at 150 mg/kg [1, 7]: 73%
- inhibition in vivo at 300 mg/kg [1, 7]: 95%

SMILES: CCNc1ccc(S(=O)(=O)NC(=O)Nc2ccc(Cl)cc2)cc1 [Example 5, N-[[(4-chlorophenyl)amino]carbonyl]-4-(ethylamino)benzenesulfonamide]
- Toxic/Total (mice which died relative to total in group) [1, 5]: 0/10
- inhibition in vivo at 300 mg/kg [1, 7]: 74%

SMILES: O=C(Nc1ccc(Cl)cc1)NS(=O)(=O)c1ccc(N2CCOCC2)cc1 [Example 6, N-[[(4-chlorophenyl)amino]-carbonyl]-4-(4-morpholinyl) benzenesulfonamide]
- Toxic/Total (mice which died relative to total in group) [1, 4]: 0/10
- Toxic/Total (mice which died relative to total in group) [1, 5]: 0/10
- inhibition in vivo at 150 mg/kg [1, 7]: 17%
- inhibition in vivo at 300 mg/kg [1, 7]: 38%

SMILES: O=C(Nc1ccc(Cl)cc1)NS(=O)(=O)c1ccc(N2CCCC2)cc1 [Example 7, N-[[(4-chlorophenyl)amino]-carbonyl]-4-(1-pyrrolidinyl) benzenesulfonamide]
- Toxic/Total (mice which died relative to total in group) [1, 4]: 0/10
- Toxic/Total (mice which died relative to total in group) [1, 5]: 0/10
- inhibition in vivo at 150 mg/kg [1, 7]: 44%
- inhibition in vivo at 300 mg/kg [1, 7]: 48%

SMILES: Nc1ccc(S(=O)(=O)NC(=O)Nc2ccc(Cl)c(Cl)c2)cc1 [Example 8, N-[[(3,4-dichlorophenyl)amino]-carbonyl]-4-(amino) benzenesulfonamide]
- inhibition in vivo at 194 mg/kg [1, 7]: 34%
- inhibition in vivo at 388 mg/kg [1, 7]: 29%
- inhibition in vivo at 775 mg/kg [1, 7]: 100%
- Toxic/Total (mice which died relative to total in group) ([1]; mouse, in vivo): 1/10 and 0/10

SMILES: CNc1ccc(S(=O)(=O)NC(=O)Nc2ccc(Cl)cc2)cc1 [Example 9]
- Toxic/Total (mice which died relative to total in group) [1, 5]: 0/10
- Percent Inhibition of tumor growth [1, 5]: 100%
- Toxic/Total (mice which died relative to total in group) [1, 6]: 0/10
- Percent Inhibition of tumor growth [1, 6]: 100%

SMILES: CNc1ccc(S(=O)(=O)NC(=O)Nc2ccc(Cl)c(Cl)c2)cc1 [Example 10]
- inhibition in vivo at 300 mg/kg [1, 7]: 100%
- inhibition in vivo at 600 mg/kg [1, 7]: 100%
- Toxic/Total (mice which died relative to total in group) ([1]; mouse, in vivo): 2/10 and 0/10

SMILES: CC(C)Nc1ccc(S(=O)(=O)NC(=O)Nc2ccc(Cl)c(Cl)c2)cc1 [Example 11]
- Toxic/Total (mice which died relative to total in group) [1, 4]: 0/10
- Percent Inhibition of tumor growth [1, 4]: 71%
- Toxic/Total (mice which died relative to total in group) [1, 5]: 1/10
- Percent Inhibition of tumor growth [1, 5]: 96%

SMILES: CCN(CC)c1ccc(S(=O)(=O)NC(=O)Nc2ccc(Cl)c(Cl)c2)cc1 [Example 12]
- Toxic/Total (mice which died relative to total in group) [1, 4]: 0/10
- Toxic/Total (mice which died relative to total in group) [1, 5]: 0/10
- inhibition in vivo at 150 mg/kg [1, 7]: 54%
- inhibition in vivo at 300 mg/kg [1, 7]: 70%
